Measurements: patent US9157099B2, “Methods for preparing a hydrocarbon” (SHELL OIL COMPANY, priority 2012, dated 2015)
Entries after “also recorded” stand apart in the source; their conditions may differ.

T1: Fdc1/Pad1 (Saccharomyces cerevisiae, UniProt Q03034)
T1 construct: His (N); made in house; host or cells: E. coli Bl21(DE3), pCOLAduet-1
T1 sequence (Q03034 1-503): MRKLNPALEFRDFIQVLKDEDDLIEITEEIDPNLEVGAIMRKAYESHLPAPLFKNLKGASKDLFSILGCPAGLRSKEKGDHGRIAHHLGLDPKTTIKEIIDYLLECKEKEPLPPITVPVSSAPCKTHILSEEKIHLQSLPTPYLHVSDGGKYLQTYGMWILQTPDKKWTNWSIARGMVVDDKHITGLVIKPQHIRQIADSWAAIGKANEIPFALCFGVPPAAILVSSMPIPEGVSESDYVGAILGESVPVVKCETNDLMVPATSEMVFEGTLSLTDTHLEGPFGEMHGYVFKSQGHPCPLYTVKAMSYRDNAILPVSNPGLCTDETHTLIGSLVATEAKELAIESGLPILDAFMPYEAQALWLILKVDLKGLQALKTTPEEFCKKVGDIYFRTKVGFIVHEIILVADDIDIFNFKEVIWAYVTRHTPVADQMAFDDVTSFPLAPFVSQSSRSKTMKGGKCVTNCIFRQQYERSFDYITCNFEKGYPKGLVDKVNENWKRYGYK

T2: purified His-Fdc1/Pad1 (Saccharomyces cerevisiae, UniProt Q03034)
T2 sequence (Q03034 1-503): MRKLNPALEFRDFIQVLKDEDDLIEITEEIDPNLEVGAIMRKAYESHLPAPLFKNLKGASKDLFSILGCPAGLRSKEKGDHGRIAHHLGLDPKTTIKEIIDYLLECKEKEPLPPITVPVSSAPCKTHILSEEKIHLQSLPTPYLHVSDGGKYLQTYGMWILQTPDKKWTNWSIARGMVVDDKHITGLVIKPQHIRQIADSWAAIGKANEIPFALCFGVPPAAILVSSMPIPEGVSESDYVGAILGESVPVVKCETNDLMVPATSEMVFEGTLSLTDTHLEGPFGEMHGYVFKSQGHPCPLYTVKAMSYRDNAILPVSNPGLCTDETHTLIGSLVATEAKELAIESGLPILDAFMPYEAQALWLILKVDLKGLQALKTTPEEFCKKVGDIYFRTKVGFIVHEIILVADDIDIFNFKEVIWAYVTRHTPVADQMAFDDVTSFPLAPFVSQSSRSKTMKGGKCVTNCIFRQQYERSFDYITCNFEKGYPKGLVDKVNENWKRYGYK

T3: fdc1/pad1 in pCOLAduet in E. coli Bl21(DE3) (Saccharomyces cerevisiae, UniProt Q03034)
T3 construct: expressed in transfected cells; host or cells: E. coli Bl21(DE3) carrying fdc1 (MCS1) and pad1 (MCS2) in pCOLAduet-1
T3 sequence (Q03034 1-503): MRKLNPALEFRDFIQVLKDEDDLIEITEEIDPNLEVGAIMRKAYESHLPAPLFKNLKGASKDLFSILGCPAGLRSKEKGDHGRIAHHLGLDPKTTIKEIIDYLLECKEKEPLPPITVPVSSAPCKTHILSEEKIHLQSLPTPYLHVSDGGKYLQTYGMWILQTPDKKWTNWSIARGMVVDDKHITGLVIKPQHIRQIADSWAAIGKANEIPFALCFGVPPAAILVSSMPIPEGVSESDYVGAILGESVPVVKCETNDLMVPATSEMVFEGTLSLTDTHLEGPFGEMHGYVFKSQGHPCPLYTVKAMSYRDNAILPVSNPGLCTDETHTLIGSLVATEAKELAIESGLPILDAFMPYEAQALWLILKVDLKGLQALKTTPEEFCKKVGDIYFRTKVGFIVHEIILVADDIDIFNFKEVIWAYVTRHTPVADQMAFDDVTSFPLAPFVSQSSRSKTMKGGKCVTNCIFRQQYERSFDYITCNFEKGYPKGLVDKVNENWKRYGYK


Tests used:
[1] = biological target: T1, Fdc1/Pad1; assay: Fdc1/Pad1 substrate range, in vivo and in vitro (summary); conditions: summary of substrate range
Description: To assess what limit the enzyme imposes on the extent of unsaturation, the inventors tested a wide range of saturated and unsaturated substrates, both in vivo and in vitro.

[2] = biological target: T2, purified His-Fdc1/Pad1; assay: UV-VIS spectroscopy of substrate consumption, Michaelis Menten parameters; conditions: for Kcat: substrate of purified His-Fdc1/Pad1, pH 6, 20° C.
Method: A direct observation of enzyme activity is possible by recording UV-VIS spectra of the solution. Aromatic substrates and aliphatic substrates with two or more double bonds conjugated to the acidic group absorb in the UV region. The activity of purified His-Fdc1/Pad1 was assayed against varying concentrations of these substrates in 400 μl 50 mM KCl, 50 mM NaPi pH 6 in a 1 mm pathlength cuvette at 20° C. Substrate consumption was monitored using a Cary 50 Bio spectrophotometer (varian) either in scanning mode, or at a specific wavelength for kinetic experiments. The rate of cinnamic acid consumption was monitored at 270 nm, ferulic acid at 312 nm, 2,4-pentadienoic acid at 242 nm, sorbic acid at 260 nm, 2,4,6-octatrienoic acid at 290 nm and 2,4-nonadienoic acid at 260 nm.

[3] = biological target: T3, fdc1/pad1 in pCOLAduet in E. coli Bl21(DE3); assay: head space GC-MS product analysis, in vivo (induced cultures); assay type: cell-based; conditions: E. coli cultures expressing Fdc1/Pad1, 25° C.
Method: For in vivo analysis, fdc1/pad1 in pCOLAduet and empty pCOLAduet in E. coli Bl21(DE3) were grown in LB supplemented with 40 μg/ml kanamycin at 37° C. to an OD600 of about 0.7 and induced with […] IPTG. 11.5 ml induced culture and a solution of 3.5 ml 20 mM substrate in distilled water with a pH of about 7.5 were placed in 20 ml head space vials with crimp top seals. Cultures were incubated in shaking incubator at 25° C. for about 12-48 hours.
(§1) Samples were analysed by GC-MS using a Thermofisher DSQ II. Vials were incubated for 3 minutes at 80° C. with agitation. 0.5 ml headspace was injected with a 105° C. syringe and a split ratio of 1/10. Analytes were separated on a 30 m 0.25 mm 0.25μ ZB5-MS (commercially obtainable from Zebron) column run (alternatively a 30 m×0.25 mm i.d.×0.1μ Varian VF-5HT column may be used) with a flow of 1.5 ml/min He. Oven temperature was held at 35° C. for 2 minutes before being ramped up to 250° C. at 10° C./min. Products were identified by searching for the corresponding mass peak.
As described above, for in vivo studies, Fdc1/Pad1 in pCOLAduet-1 and empty pCOLAduet-1 vector were transformed into E. coli Bl21(DE3). Cultures were grown in LB supplemented with 40 μg/ml kanamycin at 37° C. to OD600˜0.7 and induced with 1 mM IPTG. 11.5 ml of induced culture was added to 3.5 ml 20 mM substrate pH ˜7.5 per tube in a sealed headspace vial.
(§2) All Fdc1/Pad1 reactions were incubated in a shaking incubator at 25° C. for ˜36 hours.
(§3) Samples were analysed by GC-MS using a Thermofisher DSQ II. Vials were incubated for 3 minutes at 80° C. with agitation. 0.5 ml headspace was injected with a 105° C. syringe and a split ratio of 1/10. Analytes were separated on a 30 m 0.25 mm 0.25μ ZB5-MS (or 30 m×0.25 mm i.d.×0.1μ Varian VF-5HT) column run with a flow of 1.5 ml/min He. Oven temperature was held at 35° C. for 2 minutes before being raised to 250° C. at 10° C./min. Products were identified by searching for the corresponding mass peak.

[4] = biological target: T2, purified His-Fdc1/Pad1; assay: head space GC-MS product analysis, in vitro reactions; assay type: biochemical; design: His (N); made in house; host or cells: E. coli Bl21(DE3), pCOLAduet-1 co-expression plasmid, Ni-NTA purified; conditions: purified enzyme, 25° C.
Method: For in vitro analysis, purified His-Fdc1/Pad1 polypeptide was buffer exchanged into a solution of 150 mM NaCl and 50 mM NaPi in water with pH 7.5. Subsequently solutions of 11.5 ml 150 mM NaCl and 50 mM NaPi with pH 7.5, of 3.5 ml 20 mM substrate with pH 7.5 and of 150 μl 30 mg/ml enzyme in water or buffer were added to 20 ml head space vials with crimp top seals. Reactions were incubated with shaking at 25° C. for about 12-48 hours.
as §1
For in vitro reactions, Fdc1/Pad1 partially purified by Ni^2+ affinity and buffer exchanged into 150 mM NaCl, 50 mM NaPi pH 7.5. 11.5 ml […] pH 7.5, 3.5 ml 20 mM substrate pH 7.5 and 150 μl 30 mg/ml enzyme or enzyme free buffer were added to a sealed headspace vial.
as §2, §3

[5] = biological target: E. coli Bl21(DE3) cells containing the fdc1/pad1 co-expression plasmid (Saccharomyces cerevisiae, UniProt Q03034); conditions: 6 mM sorbic acid, pH 6.2, overnight at 37° C.
Method: In vivo enzyme activity assays were carried out using exogenous supplied substrates in the media (i.e. sorbic acid).
For in vivo pH assays, LB agar plates were supplemented with […] kanamycin, 6 mM sorbic acid and 0.004% w/v phenol red in distilled water and buffered to pH 6.2. E. coli Bl21(DE3) cells containing either the co-expression plasmid or empty pCOLAduet-1 were inoculated onto the plate and grown overnight at 37° C. […] This allows rapid visual indication of enzyme activity levels.

[6] = substrate: C=CC=CC(=O)O; assay: purified protein, by the assay type; conditions: other: substrate of purified His-Fdc1/Pad1, pH 6, 20° C.
[7] = substrate: CC=CC=CC=CC(=O)O; assay: purified protein, by the assay type; conditions: other: substrate of purified His-Fdc1/Pad1, pH 6, 20° C.
[8] = substrate: COc1cc(/C=C/C(=O)O)ccc1O; assay: purified protein, by the assay type; conditions: other: substrate of purified His-Fdc1/Pad1, pH 6, 20° C.
[9] = substrate: CCCCC=CC=CC(=O)O; assay: purified protein, by the assay type; conditions: other: substrate of purified His-Fdc1/Pad1, pH 6, 20° C.
[10] = substrate: C/C=C/C=C/C(=O)O; assay: purified protein, by the assay type; conditions: other: substrate of purified His-Fdc1/Pad1, pH 6, 20° C.
[11] = substrate: O=C(O)C=Cc1ccccc1; assay: purified protein, by the assay type; conditions: other: substrate of purified His-Fdc1/Pad1, pH 6, 20° C.

Molecule	in vitro and in vivo activity (decarboxylation) [1]	decarboxylation product formation by GC-MS, in vivo [3]	decarboxylation product formation by GC-MS, in vitro [4]	Kcat [2] [s⁻¹]	other results
CC=CC=CC=CC(=O)O [2,4,6-Octatrienoic acid]	high				enzyme dependent spectral changes / conversion by UV-VIS [2]: enzyme catalysed conversion
CCCCC=CC=CC(=O)O [2,4-Nonadienoic acid]	high				
C=CC=CC(=O)O [2,4-Pentadienoic acid]	high				
CCCCC=CC(=O)O [2-Heptenoic acid]		only been detected in vivo; also recorded: In vivo activity has also been detected			
CCCC=CC(=O)O [2-Hexenoic acid]	Lower level activity	also been detected in vivo	1-pentene product has been detected and enzyme-catalysed production of 1-pentene		
CCCCCC=CC(=O)O [2-Octenoic acid]		only been detected in vivo			decarboxylation product formation by GC-MS, in vivo ([3]; listed as 2-octenoic acids): In vivo activity has also been detected
O=C(O)C=Cc1ccccc1 [Cinnamic acid]	high	verified the presence of the anticipated decarboxylation products; also recorded: confirming styrene production	confirmed product formation; also recorded: confirming styrene production	34.394	
COc1cc(/C=C/C(=O)O)ccc1O [Ferulic acid]	high	verified the presence of the anticipated decarboxylation products	confirmed product formation	30.774	
C/C=C/C=C/C(=O)O [Sorbic acid]	high	verified the presence of the anticipated decarboxylation products	confirmed product formation	2.793	substrate dependent alkalinification in vivo [5]: yellow to red colour change observed
purified His-Fdc1/Pad1 (Saccharomyces cerevisiae S288C) (protein) MRKLNPALEFRDFIQVLKDEDDLIEITEEIDPNLEVGAIMRKAYESHLPAPLFKNLKGASKDLFSILGCPAGLRSKEKGDHGRIAHHLGLDPKTTIKEIIDYLLECKEKEPLPPITVPVSSAPCKTHILSEEKIHLQSLPTPYLHVSDGGKYLQTYGMWILQTPDKKWTNWSIARGMVVDDKHITGLVIKPQHIRQIADSWAAIGKANEIPFALCFGVPPAAILVSSMPIPEGVSESDYVGAILGESVPVVKCETNDLMVPATSEMVFEGTLSLTDTHLEGPFGEMHGYVFKSQGHPCPLYTVKAMSYRDNAILPVSNPGLCTDETHTLIGSLVATEAKELAIESGLPILDAFMPYEAQALWLILKVDLKGLQALKTTPEEFCKKVGDIYFRTKVGFIVHEIILVADDIDIFNFKEVIWAYVTRHTPVADQMAFDDVTSFPLAPFVSQSSRSKTMKGGKCVTNCIFRQQYERSFDYITCNFEKGYPKGLVDKVNENWKRYGYK					Km [6]: 109 µM; kcat [6]: 0.336 s⁻¹; Km [7]: 213 µM; kcat [7]: 99 s⁻¹; Km [8]: 203 µM; Km [9]: 221 µM; kcat [9]: 0.588 s⁻¹; Km [10]: 81 µM; Km [11]: 21 µM
